Measurements from patent US8765803B1, “Rab7 GTPase inhibitors and related methods of treatment” (STC.UNM, priority 2011, dated 2014).
Values joined by “and” are separate entries in the source; they are usually repeats but may differ in a detail not shown here. Equal values may be shown once. Read-outs that look alike come from different tables or passages of the source.

How the values were obtained:
[1] = target: Rab7 wt; conditions: previously determined (ref 33); read-out: Equilibrium dissociation constant Kd for wild-type Rab7; cited from earlier work
[2] = system: Rab7 wt; test: Equilibrium binding with varying fluorescent nucleotide at fixed CID1067700 concentration
Description: Dose response assays were conducted in two different modes. […].
[…]. […] […].

[3] = Stability in PBS at room temperature; assay type: physicochemical; conditions: 23° C., after 48 hours, no antioxidants, DMSO below 0.1%
Description: Stability, depicted as closed circles in the graph, was assessed at room temperature (23° C.) in PBS (no antioxidants or other protectants and DMSO concentration below 0.1%). Stability data is depicted as a graph showing the loss of compound with time over a 48 hr period with a minimum of 6 time points and providing the percent remaining compound at end of the 48 hr period.

[4] = Solubility in PBS and assay media, UV absorbance detection; assay type: physicochemical; conditions: read-out: Solubility
Description: Solubility was measured in phosphate buffered saline (PBS) at room temperature (23° C.). PBS by definition is 137 mM NaCl, 2.7 mM KCl, 10 mM sodium phosphate dibasic, 2 mM potassium phosphate monobasic and a pH of 7.4. Detection was based on UV absorbance. […]. Solubility was also assessed in the each of the four media used in the individual assays. […]

[5] = system: EGFR degradation in HeLa-Rab7 wt cells; test: EGFR degradation in Rab7 overexpressing HeLa cells; assay type: cell-based, human; conditions: 100 μM
Description: EGFR degradation was also monitored in HeLa cells with some minor modifications. […] Cell lysates were prepared at various time points and immunoblotted for total EGFR while actin served as a loading control.

[6] = system: Rab7 wt; test: Nucleotide dissociation assay under equilibrium conditions; conditions: CID1067700 10 μM, compared with unlabeled GDP 10 μM
Description: This low level bead associated fluorescence was subtracted from specific binding to obtain accurate measurement of the off rates. Data normalization was performed by subtracting dilution only values from competitor treated experimental values.
The experiment was carried out by pre-binding BODIPY-GTP or BODIPY-GDP to GST-tagged Rab7 protein to equilibrium and then assaying for the loss of fluorescence over time occasioned by the release of bound nucleotide (FIG. 31A-D). […] Dissociation rate constants were calculated from data fit to exponential functions using Prism software.

[7] = system: U937 cells; test: Cytotoxicity of compounds, cell density and viability; assay type: cell-based
Description: U937 cells were grown to a density of 0.4×10^6 cells/mL Compounds were added to a final concentration of 20 μM or otherwise indicated. As a control, cells were treated with DMSO of the same volume. After 24 h incubation, the density and viability of the cells were measured with Countess Cell Counter according to the protocols from the manufacturer.

[8] = system: Ras-related GTPases (Cdc42 wt, Rac1wt, Rac1Q61L, Rab2 wt, Rab7 wt, and H-Ras wt); conditions: secondary multiplex dose response
Description: The eight GTPases were grouped into two sets: Rab7, H-Ras wild type and its V12 mutant, and Cdc42 and its L61 mutant were assayed in a buffer containing 1 mM EDTA, while Rho, Rac1 and its L61 mutant, and Cdc42 and its L61 mutant were assayed in the same buffer but instead containing 1 mM Mg^2+ with Cdc42 and its mutant being tested in both buffers. Besides 1 mM EDTA or 1 mM Mg^2+, the buffer contained 30 mM HEPES, pH 7.5, 40 mM KCl, 100 mM NaCl, 0.1% (v/v) NP-40 and 1% BSA. For each multiplex reaction, an extra set of beads was included to serve as scavengers to bind any proteins that dissociate from their assigned bead set and thereby reduce interference due to protein dissociation during the assay. […] Briefly, each individual GST-tagged enzyme was incubated with 4 μm glutathione-coated microsphere beads overnight with gentle rotation. The microsphere beads have different red fluorescence dyes incorporated and therefore could be separated by a flow cytometer. The unbound enzyme was removed by sufficient washing with the buffer. The bead sets were then combined and dispensed to 384-well plates at 5 μL/well. For one plate, 0.5 μg each of the enzymes and 4.0×10^4 of each bead were used. Then 100 nL compound was added using Biomek FX followed by the addition of 5 μL/well of BODIPY-FL-GTP (ribose-linked BODIPY). […] The beads were aspirated and delivered with the HyperCyt® instrument and read on CyAnADP flow cytometer. Forward scatter and side scatter was used to define the whole bead population. […] The data was analyzed by the HyperView® software developed by Dr. Bruce Edward at the University of New Mexico.
Briefly, six sets of beads (each with a unique red fluorescence intensity) were individually coated with six representative GST-tagged Ras-related GTPases (Cdc42 wt, Rac1wt, Rac1Q61L, Rab2 wt, Rab7 wt, and H-Ras wt) (FIG. 29A). The individually conjugated beads were then assayed in the presence of individual compounds in the Molecular Libraries Small Molecule Repository using a HyperCyt flow cytometry to identify molecules that altered the binding of fluorescent nucleotide to Ras-family GTPases (36).

[9] = system: VLA-4 integrin; test: LDV binding assay in U937 ΔST cells; assay type: cell-based; conditions: FITC-LDV 4 nM, after N-formyl peptide stimulation
Description: The procedure followed the established protocols described previously. U937 ΔST cells (0.4−0.8×10^6 cells/mL) were constantly stirred with a magnetic stir bar at 500 rpm in a test tube. The fluorescence was recorded on a FACScan flow cytometer. The base line fluorescence of the cells was established for 30s. FITC-LDV at a concentration of 4 nM was then added. After the fluorescence stabilized at around 120s, the chemotactic ligand N-formyl peptide was added for stimulation resulting activation of VLA-4 integrin and additional FITC-LDV binding. […] Fluorescence was continually recorded until no further change was observed. The inhibition percentage was calculated according to Equation 1.

[10] = system: EGFR degradation in SCC-12F cells; test: EGFR degradation in SCC-12F cells; assay type: cell-based; conditions: human keratinocytes (SCC-12F), 10-100 μM
Description: SCC-12F cells were seeded in 12-well plates at 0.12×10^6 cells/well and allowed to grow overnight. On the day of the experiment, the cells were starved in serum free medium containing 25 μg/mL cycloheximide for 2 h before compounds at different concentrations were added. The cells were treated for 30 min. Then, ligand EGF was added to 20 nM. At time points of 0, 15, 30, 60, and 120 min after the EGF addition, the suspension medium was removed and the cell was quickly washed with cold PBS and frozen at −80° C. For electrophoresis and blotting, CelLytic™M Cell Lysis buffer containing protease inhibitor cocktails was added to the frozen cells to obtain the cell lysates according to the protocols from the manufacture. Protein concentration was quantified using BCA assay kit. For SDS-PAGE, 10 μg protein was loaded to each lane and proteins transferred to nitrocellulose. The nitrocellulose membranes were probed with antibodies directed against EGFR or actin and detected using peroxidase conjugated secondary antibodies and SuperSignal West Dura. Signal intensities were measured and quantified using a ChemiDoc™ XRS+ molecular imager coupled with Image Lab software.

[11] = Chemical stability towards L-glutathione in DMSO, LCMS; assay type: physicochemical; conditions: 1.2-3.0 eq L-glutathione in DMSO, 37° C., up to 72 h
Description: The three experiments were monitored by LCMS at each of the following time points: 1 h, 2 h, 4 h, 24 h, 48 h, and 72 h. Procedure: […]

BODIPY FL GDP 2′-(or -3′)-O—[N-(2-aminoethyl)urethane] [BODIPY-GDP]
Kd [1]: 40 nM

CC1(C)Cc2c(sc(NC(=S)NC(=O)c3ccccc3)c2C(=O)O)CO1 [CID1067700, 2-(3-benzoylthioureido)-5,5-dimethyl-5,7-dihydro-4H-thieno[2,3-c]pyran-3-carboxylic acid]
Increase of Ki (Cheng Prusoff) between inhibition of BODIPY-GTP and BODIPY-GDP [2]: 2 fold
Effect on Rab7 wt Bmax for BODIPY-GTP ([2]; CID1067700 100 nM): does not alter
Effect on Rab7 wt Bmax for BODIPY-GDP ([2]; CID1067700 200 nM): does not alter
Increase in observed EC50 for both nucleotides in the presence of CID1067700 ([2]; CID1067700 fixed at 100-200 nM): ≤ 3 fold
Percent remaining compound [3]: 77%
solubility ([4]; Dose Response-EDTA buffer, pH 7.5, aqueous with cosolvent or surfactant or cyclodextrin, Dose Response-EDTA buffer: 30 mM HEPES, pH 7.5, 100 mM KCl, 20 mM NaCl, 0.01% NP-40, 1 mM EDTA): 69.7 µg/mL
solubility ([4]; Dose Response-EDTA buffer, pH 7.5, aqueous with cosolvent or surfactant or cyclodextrin, Dose Response-EDTA buffer): 178 µM
solubility ([4]; Dose Response-Mg buffer, pH 7.5, aqueous with cosolvent or surfactant or cyclodextrin, Dose Response-Mg buffer: 30 mM HEPES, pH 7.5, 100 mM KCl, 20 mM NaCl, 0.01% NP-40, 1 mM MgCl2): 68.1 µg/mL
solubility ([4]; Dose Response-Mg buffer, pH 7.5, aqueous with cosolvent or surfactant or cyclodextrin, Dose Response-Mg buffer): 174 µM
solubility ([4]; phosphate buffered saline (PBS), 23 °C, pH 7.4, aqueous buffer, 1 × PBS, pH 7.4, room temperature (23° C.)): > 116 µg/mL and > 297 µM
Growth factor receptor (EGFR) degradation [5]: decreased
Effect on rate of release of bound BODIPY-GTP or BODIPY-GDP [6]: no effect
Cell viability of U937 cells after treatment ([7]; 24 h, 20 μM): 94%
Cytotoxicity in U937 cells ([7]; 24 h in growth medium): no obvious cytotoxicity
EC50 ([8]; read-out: EC50 against all tested GTPases, fluorescent GTP): 20 to 500 nM
Inhibition against all tested GTPases [8]: at least 40%
VLA4 binding with LDV peptide [9]: inhibits
Growth factor receptor (EGFR) degradation [10]: decreased
Glutathione conjugate formation by LCMS [11]: did not result in LCMS detection of any conjugates or other product peaks
Glutathione conjugate formation by LCMS ([11]; listed as SID 85747738): No glutathione conjugate or other peaks were observed
